Measured values taken from patent US20160194308A1, “NOVEL PIPERIDINYL BENZOIMIDAZOLE DERIVATIVES AS MPGES-1 INHIBITORS” (NovaSAID AB, priority 2013, published 2016).

Tests used:
[1] = biological target: T1, hERG potassium currents (CHO-K1 cells stably transfected with hERG) (Homo sapiens, UniProt Q12809); experiment: Automated whole-cell patch-clamp hERG assay; type: cell-based; conditions: for IC50: Qpatch, tail current, CHO-K1 cells, 0.39 μM to 100 μM cumulatively; for IC50 ratio hERG/mPGEs-1: ratio of hERG IC50 to human mPGEs-1 IC50
T1 construct: expressed in transfected cells; host or cells: CHO-K1 cells (American Tissue Culture Collection), stably transfected
T1 sequence (Q12809 whole entry): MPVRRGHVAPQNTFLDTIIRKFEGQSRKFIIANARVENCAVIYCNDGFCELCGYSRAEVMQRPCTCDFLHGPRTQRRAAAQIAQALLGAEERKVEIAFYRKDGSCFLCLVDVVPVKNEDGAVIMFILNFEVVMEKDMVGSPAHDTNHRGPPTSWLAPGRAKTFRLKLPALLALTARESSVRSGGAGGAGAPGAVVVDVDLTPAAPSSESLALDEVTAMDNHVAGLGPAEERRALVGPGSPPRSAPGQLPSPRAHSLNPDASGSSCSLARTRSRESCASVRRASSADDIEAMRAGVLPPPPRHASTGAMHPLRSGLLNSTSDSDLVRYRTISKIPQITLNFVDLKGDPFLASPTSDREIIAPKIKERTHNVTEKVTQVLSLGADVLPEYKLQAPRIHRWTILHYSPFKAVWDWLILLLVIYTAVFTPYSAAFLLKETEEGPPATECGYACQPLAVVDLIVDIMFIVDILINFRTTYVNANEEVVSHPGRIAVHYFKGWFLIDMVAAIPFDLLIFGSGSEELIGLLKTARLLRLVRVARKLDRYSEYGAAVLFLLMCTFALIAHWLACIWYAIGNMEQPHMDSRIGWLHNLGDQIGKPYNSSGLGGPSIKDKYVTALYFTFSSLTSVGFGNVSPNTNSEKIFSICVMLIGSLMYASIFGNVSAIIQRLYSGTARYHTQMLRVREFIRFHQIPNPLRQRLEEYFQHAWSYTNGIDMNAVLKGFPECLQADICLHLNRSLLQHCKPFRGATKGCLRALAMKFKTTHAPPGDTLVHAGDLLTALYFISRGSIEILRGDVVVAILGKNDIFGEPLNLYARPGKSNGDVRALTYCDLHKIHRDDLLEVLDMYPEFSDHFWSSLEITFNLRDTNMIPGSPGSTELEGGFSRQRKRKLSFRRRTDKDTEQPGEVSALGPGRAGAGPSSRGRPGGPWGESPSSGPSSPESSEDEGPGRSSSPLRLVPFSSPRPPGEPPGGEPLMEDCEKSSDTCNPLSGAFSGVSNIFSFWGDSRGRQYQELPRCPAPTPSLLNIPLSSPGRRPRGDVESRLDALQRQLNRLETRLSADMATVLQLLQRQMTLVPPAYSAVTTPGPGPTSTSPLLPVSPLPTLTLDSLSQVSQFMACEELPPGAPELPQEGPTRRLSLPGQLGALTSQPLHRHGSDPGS
Protocol: The automated whole-cell patch-clamp hERG assay uses CHO-K1 cells obtained from American Tissue Culture Collection. hERG cDNA (GenBank sequence NM_000238) was subcloned into pSI vector (Promega). The CHO-K1 cells were co-transfected with this construct and pPUR (containing puromycin selective marker, BD Bioscience). After selection in puromycin for 10 days, single colonies were selected and verified with hERG potassium currents. The stably transfected cells were cultured in F-12 Kaighn's Nutrient Mixture medium (Invitrogen)+10% FBS at 37 C for 1-3 days. Subsequently the cells were harvested by trypsination and kept in serum free medium at room temperature before recording. The cells were washed and resuspended in extracellular solution before being applied to the patch clamp sites.
After whole cell configuration was achieved, the cell was held at −80 mV. A 50 millisecond pulse to −40 mV was delivered to measure the leaking current, which was subtracted from the tail current on-line. Then the cell was de-polarized to +20 mV for 2 seconds, followed by a second pulse to −40 mV to reveal hERG tail current. The paradigm was delivered once every 5 seconds to monitor the current amplitude. The extracellular solution (control) was applied first and the cell was stabilized in extracellular solution for 5 minutes. Then the test compound was applied from low concentrations (0.39 μM) to high concentrations (100 μM) cumulatively. The cell was incubated with each test concentration for 5 minutes. During the incubation, the cell was repeatedly stimulated using the voltage protocol described above, and the tail current amplitude was continuously monitored.
Data were acquired by Qpatch (Sophion Bioscience) and the degree of inhibition (%) was obtained by measuring the tail current amplitude before and after test compound incubation (the difference in current was normalized to control and multiplied by 100 to obtain the percent of inhibition). Concentration (log) response curves were fitted to a logistic equation (three parameters assuming complete block of the current at very high test compound concentrations) to generate estimates of the 50% inhibitory concentration (IC50). The concentration-response relationship of each compound was constructed from the percentage reductions of current amplitude by sequential concentrations (0.39 μM to 100 μM).
Further background information on the hERG assay is available in Expert Opin. Ther. Targets (2006) 10(2):319-327.

[2] = biological target: T2, recombinant membrane-bound human mPGEs-1 (Homo sapiens, UniProt O14684); experiment: Thiobarbituric acid assay (TBA-MDA assay), inhibition of mPGEs-1; type: biochemical; conditions: arithmetic mean values, human mPGEs-1 TBA-MDA assay
T2 sequence (O14684 1-152): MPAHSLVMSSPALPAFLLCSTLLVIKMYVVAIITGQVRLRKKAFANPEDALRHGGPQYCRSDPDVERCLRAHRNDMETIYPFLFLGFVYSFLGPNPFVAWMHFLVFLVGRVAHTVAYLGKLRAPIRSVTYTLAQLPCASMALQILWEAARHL
Text: Malondialdehyde is a product of lipid peroxidation and reacts with thiobarbituric acid forming a red product that absorbs light at 535 nm (W. G. Niehaus, Jr and B. Samuelsson, Eur. J. Biochem 6, 126 (1968)) and is also fluorescent. The extinction coefficient of the TBA-MDA conjugate is 1.56×10^5 M^−1 cm^−1 (E. D. Wills. Biochem. J. 113, 315 (1969). The method used for detection of inhibition of mPGEs-1 is based on the detection of the amount of remaining PGH2. This method was described more than 20 years ago by Basevich et al (Bioorg. Khim. 1983, 9(5), 658-665).
The assay used was a modified variant and used citric acid instead of the TCA-TBA-HCl reagent described in the original assay. In this assay, recombinant membrane-bound human mPGEs-1 was incubated with PGH2. The reaction was stopped by adding citric acid to a final pH 3 and a large excess of iron(II) chloride (20 mM) to convert any remaining PGH2 into MDA and 12-HHT. TBA reagent was finally added (0.67%) and the samples were heated at 80° C. for 30 min. The fluorescence of the conjugate was measured at 485/545 nm.
The product of mPGEs-1 (PGE2) was not measured directly in this assay, but rather the remaining substrate (PGH2) indirectly by adding FeCl2 that converts PGH2 into MDA and 12-HHT. As a positive control, a known mPGEs-1 inhibitor, MK-886, was used and the inhibition afforded by the new inhibitors was compared with that obtained from MK-886.

## Cc1cc2c(cc1Cl)nc(N1CCC(C(=O)N[C@@H]3CCOC3)CC1)n2-c1ccc(C(F)(F)F)cn1 [Comparative Example 3, (R)-1-(5-chloro-6-methyl-1-(5-(trifluoromethyl)pyridin-2-yl)-1H-benzo[d]imidazol-2-yl)-N-(tetrahydrofuran-3-yl)-piperidine-4-carboxamide]
[1]
  IC50: 19000 nM
  IC50 ratio hERG/mPGEs-1: 328

## Cc1cc2nc(N3CCC(C(=O)N[C@@H]4CCOC4)CC3)n(-c3ccc(C(F)(F)F)cn3)c2cc1Cl [Comparative Example 4, (R)-1-(6-chloro-5-methyl-1-(5-(trifluoromethyl)pyridin-2-yl)-1H-benzo[d]imidazol-2-yl)-N-(tetrahydrofuran-3-yl)-piperidine-4-carboxamide]
[1]
  IC50: 14000 nM
  IC50 ratio hERG/mPGEs-1: 304

## O=C(N[C@@H]1CCOC1)C1CCN(c2nc3cc(Cl)c(Cl)cc3n2-c2cccc(C(F)(F)F)n2)CC1 [Comparative Example 5, (R)-1-(5,6-dichloro-1-(6-(trifluoromethyl)pyridin-2-yl)-1H-benzo[d]imidazol-2-yl)-N-(tetrahydrofuran-3-yl)piperidine-4-carboxamide]
[2]
  IC50: 24 nM
[1]
  IC50: 2100 nM
  IC50 ratio hERG/mPGEs-1: 88

## Cc1cc2c(cc1Cl)nc(N1CCC(C(=O)N[C@H]3COC[C@@H]3O)CC1)n2-c1cccc(C(F)(F)F)n1 [Example 1, 1-(5-chloro-6-methyl-1-(6-(trifluoromethyl)pyridin-2-yl)-1H-benzo[d]imidazol-2-yl)-N-((3S,4R)-4-hydroxytetrahydrofuran-3-yl)piperidine-4-carboxamide]
[2]
  IC50: 38 nM
[1]
  IC50: 38000 nM
  IC50 ratio hERG/mPGEs-1: 1000

## Cc1cc2nc(N3CCC(C(=O)N[C@H]4COC[C@@H]4O)CC3)n(-c3cccc(C(F)(F)F)n3)c2cc1Cl [Example 2, 1-(6-chloro-5-methyl-1-(6-(trifluoromethyl)pyridin-2-yl)-1H-benzo[d]imidazol-2-yl)-N-((3S,4R)-4-hydroxytetrahydrofuran-3-yl)piperidine-4-carboxamide]
[2]
  IC50: 32 nM
[1]
  IC50: > 100000 nM
  IC50 ratio hERG/mPGEs-1: >3125
